Data from article PMC11048566, “The Development of a Regulator of Human Serine Racemase for N-Methyl-D-aspartate Function” (Biomedicines, 2024).
One block for each compound: values may come before it.

Legend:
[1] = molecular target: T1, human serine racemase (hSR) (Homo sapiens, UniProt Q9GZT4); experiment: Two-step enzymatic assay of hSR racemization (hSR, then DAAO/HRP/Amplex Red); format: biochemical; details: within the physiological range of ATP concentration
T1 construct: 6xHis (C); made in house; host or cells: E. coli BL21 (pET42b-hSR)
T1 sequence (Q9GZT4 1-340): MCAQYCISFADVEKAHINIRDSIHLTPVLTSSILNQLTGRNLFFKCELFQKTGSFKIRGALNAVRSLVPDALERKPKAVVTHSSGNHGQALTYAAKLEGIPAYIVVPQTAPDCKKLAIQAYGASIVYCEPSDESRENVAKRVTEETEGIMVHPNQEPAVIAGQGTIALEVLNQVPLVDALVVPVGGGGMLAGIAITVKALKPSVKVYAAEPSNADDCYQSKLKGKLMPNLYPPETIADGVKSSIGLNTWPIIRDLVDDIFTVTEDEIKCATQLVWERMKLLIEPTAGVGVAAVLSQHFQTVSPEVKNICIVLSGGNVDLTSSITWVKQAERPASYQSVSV
Description: This assay was designed by the formation of D-serine by hSR and the oxidation of D-serine by D-amino acid oxidase (DAAO) and horseradish peroxidase (HRP) with the peroxidase substrate Amplex Red^TM (10-acetyl-3,7-dihydroxyphenoxazine) (Thermo Fisher Scientific, Lagoas Park, Porto Salvo, Portugal). The hSR activity assay reaction was carried out in 100 mM HEPES buffer, pH 8.0, containing 2.4 µg of hSR protein, 50 µM PLP, 1 mM MgCl2, 0.25 mM ATP, 400 mM L-serine, and 2 times serially diluted α12G (8 mM to 0.2 µM). Compound-free wells were used as blank controls in the assay. All reactions were performed in duplicates. The reaction mixtures were incubated at 37 °C for 4 h. The reaction was stopped by heating the reaction mixtures at 95 °C for 10 min and storage at 4 °C. A reaction mixture for the second-step enzymatic assay, DAAO assay, with a final volume of 100 µL was made with a 10 µL sample from hSR assay, 45 µM FAD, 10 units of HRP, 60 ng DAAO, 10 mM lead acetate, 10 mM Amplex Red^TM, and 100 mM Tris HCl (pH = 8.5). Lead acetate was used to conjugate α12G as the latter would inhibit the DAAO function in the fluorometric assay, leading to an […] of the effects of α12G on hSR. The fluorescence was detected by the TECAN Infinite 200 Microplate Reader (GMI, MN, USA). The racemization percentage was calculated as follows: racemization % = (Fsample, 20 min − Fsample, 0 min)/(Fblank, 20 min − Fblank, 0 min) × 100%. […] The two-step enzymatic assay described in Section 2.3 was designed by the formation of D-serine by hSR and the consequent oxidation of D-serine by DAAO. The inhibition of DAAO, which also degrades D-serine, by α12G will lead to overestimating the effects of racemization by hSR. […] Therefore, lead acetate was applied to conjugate α12G for the determination of racemization. […] On the contrary, when the concentration of α12G is higher than 2 mM, the racemization activity of hSR is inhibited.

[2] = molecular target: T2, hSR (Homo sapiens, UniProt Q9GZT4); parameters: method as in PMID 29899358; details: 2 mM ATP, cited from earlier work
T2 construct: 6xHis (C); made in house; host or cells: E. coli BL21 (pET42b-hSR)
T2 sequence (Q9GZT4 1-340): T1 sequence (Q9GZT4 1-340)

[3] = tested on: SR; experiment: D-serine and L-serine levels in cerebral cortex and plasma after IV DMM (LC-MS/MS); format: in vivo, C57BL/6J male mice; details: 400 mg/kg DMM IV, 30 min after administration, vs vehicle, n = 3
Description: For the determination of DAA concentration, C57BL/6J male mice received 50, 100, 200, and 400 mg/kg DMM (TGI, Tokyo, Japan) IV, and the mice were euthanized 30 min later. Cerebral cortex and plasma samples (n = 3 − 9) were collected and stored at −80 °C until the time of analysis. The brain tissues were weighed and homogenized on ice with 5-fold volumes of 1000 ng/mL tolbutamide (internal standard, IS, Sigma-Aldrich, St. Louis, MO, USA)) in methanol (Merck KGaA, Darmstadt, Germany). The plasma was combined with 4-fold volumes of 1250 ng/mL IS in methanol and vortexed for 2 min. The homogenates were centrifuged at 12,000× g […] for 10 min at 4 °C in an Eppendorf 5417R centrifuge (Eppendorf, Hamburg, Germany). The supernatant was passed through a 0.22 μm filter (Merck KGaA, Darmstadt, Germany) and analyzed by liquid chromatography–tandem mass spectrometry (LC-MS/MS) using the following method: An Agilent 1260 LC quaternary pump with an Agilent 1260 LC infinity autosampler and an Agilent 1100 column oven (Marshall Scientific, Hampton, NH, USA) were used to inject the samples onto an Astec Chirobiotic column (5 μm, 250 × 4.6 mm I.D., Sigma-Aldrich, St. Louis, MO, USA). The mobile phase was a 20/80 mixture of mobile phase A (0.1% formic acid (Sigma-Aldrich, St. Louis, MO, USA) in ddH2O) and mobile phase B (0.1% formic acid in acetonitrile), and the run was isocratic at a flow rate of 0.3 mL/min. Quantitation was achieved by MS/MS detection in positive ion multiple reaction monitoring (MRM) mode for analyte and IS using an AB SCIEX 3200 triple quadrupole ion trap mass spectrometer (AB Sciex, Framingham, MA, USA). The parameters for curtain gas, ion spray voltage, temperature, ion source gas 1, and ion source gas 2 were 10 psi, 5000 V, 550 °C, 35 psi, and 30 psi, respectively. AB SCIEX Analyst® (version 1.6.3, AB Sciex, Framingham, MA, USA) software was used for system control and data processing. To investigate the regulation of racemization by hSR, we applied DMM, the pro-drug of malonate, to C57BL/6J male mice. The mice were euthanized 30 min after the administration. The cerebral cortex and plasma were harvested and analyzed by LC-MS/MS to quantify D-serine and L-serine levels after the treatment with DMM (Figure 1). […] L-serine levels were also raised in the cerebral cortex 1.44 times (p < 0.001; n = 3; Student’s t-test) and in plasma 1.55 times (p < 0.05; n = 3; Student’s t-test).

[4] = molecular target: D-amino acid oxidase (DAAO) (Homo sapiens, UniProt P14920); experiment: DAAO enzymatic assay; format: biochemical
Description: A reaction mixture for the DAAO assay, with a final volume of 100 µL was made with 1 µL 2 times serially diluted α12G (4 µM to 7.8 nM), 45 µM FAD, 10 units of HRP, 60 ng DAAO, 10 mM Amplex Red^TM, 5 mM D-serine, and 100 mM Tris HCl (pH = 8.5). All reactions were performed in duplicates. The fluorescence was detected by a fluorometric meter (TECAN Infinite 200). The racemization percentage was calculated as follows: activity % = (Fsample, 20 min − Fsample, 0 min)/(Fblank, 20 min − Fblank, 0 min) × 100%.

[5] = tested on: SR; details: two-step enzymatic assay; read-out: IC50 of SR inhibition; cited from earlier work

ATP concentration that promotes the most racemization by hSR [1]: 0.25 mM
Compound: Nc1ncnc2c1ncn2[C@@H]1O[C@H](COP(=O)(O)OP(=O)(O)OP(=O)(O)O)[C@@H](O)[C@H]1O [ATP]
Increase in enzyme activation, L-serine dehydration (kcat/KM 8.1 to 253 s^−1 M^−1) ([2]; 200 mM L-serine, 37 °C): 31 fold
Enhancement of D-serine dehydration (kcat/KM 0.6 to 2.4 s^−1 M^−1) [2]: 4 fold
Enhancement of L-serine racemization (kcat/KM 9.2 to 17.5 s^−1 M^−1) [2]: 1.9 fold

Compound: COC(=O)CC(=O)OC [DMM, dimethyl malonate]
D-serine level in plasma, raised [3]: 1.75 times
D-serine level in the cerebral cortex, raised [3]: 1.43 times
L-serine level in plasma, raised [3]: 1.55 times
L-serine level in the cerebral cortex, raised [3]: 1.44 times

Effect on DAAO [4]: has an inhibitory effect on DAAO
Compound: Nc1ccccc1N1CCOCC1 [x-0458, 2-morpholinoaniline, reference compound]
IC50 [5]: 10.6 µM
